# Calls of active or inactive are those of the source. Rule as the data show it, for most assays here: actives have a measured EC50 and inactives only a lower limit.
# Tested on: not listed separately
# Experiment: NIH-3T3 fibroblast cytotoxicity, dose response, cytotoxicity control, cell-based, fluorescence, Alamar Blue, secondary assay (AID 2327);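 also: NIH-3T3 mouse fibroblasts cultured with fluconazole at 8 µg/mL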
# Format: functional
# Conditions: not given
row,Structure (SMILES),EC50
1,Cc1ccc(NC(=S)c2nc3ccccc3[nH]2)cc1,> 160 µM (inactive)
2,O=C(CSc1nc(-c2ccccc2)cs1)Nc1nccs1,> 160 µM (inactive)
3,CCn1c(C)nc2cc(C(=O)NN=C(S)Nc3ccc(Cl)cc3Cl)ccc21,> 160 µM (inactive)
4,CCOC(=O)c1c(NC(=O)C2Cc3ccccc3C(=O)O2)sc2c1CCCC2 (stereo unspecified),> 160 µM (inactive)
5,COc1ccc(-c2n(C)c3ccccc3[n+]2CC(=O)OC2CC(C)CCC2C(C)C)cc1 (stereo unspecified),17.4 µM (inconclusive)
6,O=C(O/N=C1/CCSc2ccccc21)c1ccc(F)cc1,30.1 µM (active)
7,CC(C)NC(=S)N/N=C/c1ccc(C(C)(C)C)cc1,91.3 µM (inconclusive)

# Tested on: not listed separately
# Experiment: inhibitors of firefly luciferase expression or activity, dose response, H4 neuroglioma cells, luminescence (AID 1990)
# Format: functional, cell-based
# Conditions: not given
row,Structure (SMILES),EC50
1,COc1ccc(-c2n(C)c3ccccc3[n+]2CC(=O)OC2CC(C)CCC2C(C)C)cc1 (stereo unspecified),8.73 µM (active)

# Tested on: not listed separately
# Experiment: Luminescence Cell-Based Dose Confirmation HTS to Identify Activators of 5'UTR Stem-Loop Driven Alpha-Synuclein mRNA Translation in H4 Neuroglioblastoma Cells. [Related pubchem assays: 1829 (Project Summary), 1814 (Primary HTS)]
# Format: functional
# Conditions: not given
row,Structure (SMILES),EC50
1,CCN(CC)c1ccc(/C=N/NC(=O)Nc2nonc2N)cc1,98.8 µM (active)

# Tested on: not listed separately
# Experiment: Luminescence Cell-Based Dose Response HTS to Identify Activators of Luciferase Translation or Activity in H4 […] Cells. [Related pubchem assays: 1829 (Project Summary), 1814 (Primary HTS)]
# Format: functional
# Conditions: not given
row,Structure (SMILES),EC50
1,CCN(CC)c1ccc(/C=N/NC(=O)Nc2nonc2N)cc1,7.18 µM (active)

# Tested on: Streptococcus sp. 'group A'
# Experiment: growth inhibition of control SK(-) GAS strain, dose response, counter-screen for streptokinase expression inhibitor project, luminescence, kanamycin, BacTiterGlo, confirmation (AID 1900)
# Format: functional, organism-based
# Conditions: not given
row,Structure (SMILES),EC50
1,Cc1ccc(NC(=S)c2nc3ccccc3[nH]2)cc1,3.7 µM (active)
2,CC(C(=O)NC1C(=O)N2C(C(=O)O)=C(CSc3nnnn3C)CSC12)n1cc(Cl)cn1 (stereo unspecified),0.161 µM (active)
3,COc1cc(Nc2c([N+](=O)[O-])nn(-c3ccc4c(c3)OCCO4)[n+]2[O-])cc(OC)c1,2.35 µM (active)

# Tested on: not listed separately
# Experiment: Luminescence Cell-Based Dose Response HTS to Identify Inhibitors of 5'UTR Stem-Loop Driven Prion Protein mRNA Translation in H4 Neuroglioblastoma Cells. [Related pubchem assays: 1827 (Project Summary), 1813 (Primary HTS)]
# Format: functional
# Conditions: not given
row,Structure (SMILES),EC50
1,COc1ccc(-c2n(C)c3ccccc3[n+]2CC(=O)OC2CC(C)CCC2C(C)C)cc1 (stereo unspecified),10.9 µM (active)

# Tested on: H4
# Experiment: Luminescence Cell-Based Dose Response HTS to Identify Activators of 5'UTR Stem-Loop Driven Prion Protein mRNA Translation in H4 Neuroglioblastoma Cells. [Related pubchem assays: 1829 (Project Summary), 1814 (Primary HTS)]
# Format: functional
# Conditions: Homo sapiens
row,Structure (SMILES),EC50
1,CCN(CC)c1ccc(/C=N/NC(=O)Nc2nonc2N)cc1,30.9 µM (active)

# Tested on: not listed separately
# Experiment: inhibitors of SNCA 5'UTR-driven reporter translation, confirmation, H4 neuroglioma cells, luminescence (AID 1988)
# Format: functional, cell-based
# Conditions: not given
row,Structure (SMILES),EC50
1,COc1ccc(-c2n(C)c3ccccc3[n+]2CC(=O)OC2CC(C)CCC2C(C)C)cc1 (stereo unspecified),8.61 µM (active)

# Molecular target: T1, Streptokinase A (Streptococcus pyogenes serotype M1, UniProt P10520)
# T1 sequence (P10520 whole entry): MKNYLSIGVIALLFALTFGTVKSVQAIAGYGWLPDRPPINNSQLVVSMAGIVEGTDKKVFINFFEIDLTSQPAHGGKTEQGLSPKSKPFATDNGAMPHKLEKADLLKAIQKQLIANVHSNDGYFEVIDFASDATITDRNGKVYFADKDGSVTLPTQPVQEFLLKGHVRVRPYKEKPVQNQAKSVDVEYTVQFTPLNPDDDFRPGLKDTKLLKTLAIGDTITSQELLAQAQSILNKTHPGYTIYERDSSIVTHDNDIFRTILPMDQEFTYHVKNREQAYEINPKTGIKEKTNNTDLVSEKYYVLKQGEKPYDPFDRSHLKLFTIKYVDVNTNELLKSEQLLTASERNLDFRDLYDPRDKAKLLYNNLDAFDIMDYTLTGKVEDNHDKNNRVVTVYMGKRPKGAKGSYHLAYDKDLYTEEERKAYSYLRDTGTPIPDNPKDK
# Experiment: S. pyogenes streptokinase expression inhibitors, potency, dose response, plasminogen activation absorbance, OD405 (AID 1914);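 also: secreted streptokinase activity via plasminogen activation per viability signal from cell pellet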
# Format: functional, Streptococcus pyogenes M1 GAS
# Conditions: not given
row,Structure (SMILES),EC50
1,COc1cc(Nc2c([N+](=O)[O-])nn(-c3ccc4c(c3)OCCO4)[n+]2[O-])cc(OC)c1,> 150 µM (not active)

# Tested on: not listed separately
# Experiment: C. albicans growth with fluconazole, confirmation, fluorescence, retest (AID 2467)
# Format: functional, cell-based
# Conditions: not given
row,Structure (SMILES),EC50
1,Cc1ccc(NC(=S)c2nc3ccccc3[nH]2)cc1,> 38 µM (not active)
2,O=C(CSc1nc(-c2ccccc2)cs1)Nc1nccs1,> 38 µM (not active)
3,CCn1c(C)nc2cc(C(=O)NN=C(S)Nc3ccc(Cl)cc3Cl)ccc21,6.98 µM (active)
4,CCOC(=O)c1c(NC(=O)C2Cc3ccccc3C(=O)O2)sc2c1CCCC2 (stereo unspecified),> 38 µM (not active)
5,COc1ccc(-c2n(C)c3ccccc3[n+]2CC(=O)OC2CC(C)CCC2C(C)C)cc1 (stereo unspecified),0.25 µM (active)
6,O=C(O/N=C1/CCSc2ccccc21)c1ccc(F)cc1,> 38 µM (not active)
7,CC(C)NC(=S)N/N=C/c1ccc(C(C)(C)C)cc1,> 38 µM (not active)

# Tested on: not listed separately
# Experiment: inhibitors of intracellular T. cruzi replication, confirmation, NIH3T3 host cells, beta-gal luminescence (AID 2044);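 also: intracellular parasites grown in NIH/3T3 mouse fibroblasts as host cells; luminescent beta-galactosidase reporter signal from transgenic T. cruzi replicating inside host cells; inhibitors lower the luminescence signal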
# Format: functional, cell-based
# Conditions: not given
row,Structure (SMILES),EC50
1,Cc1ccc(SCCN2CCN(Cc3ccccc3)CC2)cc1,0.549 µM (active)

# Tested on: not listed separately
# Experiment: growth suppression of PTEN-null colon cells, dose response, cell-based, HCT116 PTEN knockout (AID 1047);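 also: HCT116 colon tumor cells with PTEN knocked out; cells exposed to compound for 60 hours before readout; potency for loss of cell viability measured by luminescence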
# Format: functional
# Conditions: not given
row,Structure (SMILES),EC50
1,Cc1ccc(NC(=S)c2nc3ccccc3[nH]2)cc1,26.3 µM (active)
2,C=CCn1c(SCC(=O)c2c(N)n(C)c(=O)n(C)c2=O)nc2sc(CC)cc2c1=O,26.2 µM (active)
3,COc1cc(Nc2c([N+](=O)[O-])nn(-c3ccc4c(c3)OCCO4)[n+]2[O-])cc(OC)c1,2.29 µM (active)
4,COc1ccc2oc(C(=O)c3ccccc3)c(NC(=O)CN3CCN(C)CC3)c2c1,15.9 µM (active)
5,O=C1/C(=C\c2cccnc2)CCc2ccccc21,15.4 µM (active)

# Tested on: not listed separately
# Experiment: cytotoxicity toward NIH3T3 fibroblasts, dose response, counter-screen, cell-based, ATP luminescence, mouse fibroblasts (AID 2010);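 also: cells exposed to compound for about 90 hours before reading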
# Format: functional
# Conditions: not given
row,Structure (SMILES),EC50
1,Cc1ccc(SCCN2CCN(Cc3ccccc3)CC2)cc1,> 60 µM (not active)

# Tested on: not listed separately
# Experiment: growth suppression of beta-catenin-knockout colon cells, dose response, cell-based, HCT116, human colon tumor (AID 1045);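 also: HCT116 colon tumor cells with beta catenin knocked out; cells exposed to compound for 60 hours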
# Format: functional
# Conditions: not given
row,Structure (SMILES),EC50
1,Cc1ccc(NC(=S)c2nc3ccccc3[nH]2)cc1,19.2 µM (active)
2,C=CCn1c(SCC(=O)c2c(N)n(C)c(=O)n(C)c2=O)nc2sc(CC)cc2c1=O,23.3 µM (active)
3,COc1cc(Nc2c([N+](=O)[O-])nn(-c3ccc4c(c3)OCCO4)[n+]2[O-])cc(OC)c1,1.78 µM (active)
4,COc1ccc2oc(C(=O)c3ccccc3)c(NC(=O)CN3CCN(C)CC3)c2c1,14.1 µM (active)
5,O=C1/C(=C\c2cccnc2)CCc2ccccc21,14.5 µM (active)

# Tested on: Streptococcus
# Experiment: Group A Streptococcus viability loss, dose response, counter-screen for streptokinase expression inhibitor project, luminescence, BacTiterGlo (AID 1915);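 also: potency for reduction of bacterial viability or growth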
# Format: functional, organism-based
# Conditions: not given
row,Structure (SMILES),EC50
1,Cc1ccc(NC(=S)c2nc3ccccc3[nH]2)cc1,7.64 µM (active)
2,CC(C(=O)NC1C(=O)N2C(C(=O)O)=C(CSc3nnnn3C)CSC12)n1cc(Cl)cn1 (stereo unspecified),0.343 µM (active)
3,COc1cc(Nc2c([N+](=O)[O-])nn(-c3ccc4c(c3)OCCO4)[n+]2[O-])cc(OC)c1,19 µM (active)

# Molecular target: T2, Ubiquitin-conjugating enzyme E2 N (Homo sapiens, UniProt P61088);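 also: Dose-response confirmation in a TR-FRET assay detecting UBC13-driven polyubiquitin chain formation, inhibition measured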
# T2 sequence (P61088 whole entry): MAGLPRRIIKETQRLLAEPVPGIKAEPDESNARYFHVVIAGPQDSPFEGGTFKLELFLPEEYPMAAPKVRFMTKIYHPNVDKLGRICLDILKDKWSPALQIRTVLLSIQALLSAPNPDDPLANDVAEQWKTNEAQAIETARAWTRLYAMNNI
# Experiment: not given
# Format: functional
# Conditions: not given
row,Structure (SMILES),IC50
1,CC(=O)n1cc([C@H]2C=C(C(=O)Nc3ccccc3)O[C@@H](OCCCCO)C2)c2ccccc21,> 20 µM (inactive)
2,CCOC(=O)c1c(CN2CCN(c3ccccc3)CC2)oc2ccc(O)cc12,> 20 µM (inactive)
3,CC(C)Oc1ccc(Cl)cc1Nc1nc(NCCO)nc(N2CCCC2)n1,> 20 µM (inactive)
4,OCCNc1nc(Nc2cc(Cl)ccc2OC2CCCC2)nc(N2CCCC2)n1,> 20 µM (inactive)
5,CC(C)C[C@H](NC(=O)c1[nH]cnc1C(=O)N[C@@H](CCCCN)C(=O)OC(C)(C)C)C(=O)OC(C)(C)C,> 20 µM (inactive)
6,CC[C@@H](C)[C@@H]1CN([C@@H](CN2CCC[C@H]2CN2C(N)=NC[C@@H]2Cc2ccccc2)C(C)C)C(=N)N1CCCC1CCCC1,> 20 µM (inactive)

# Molecular target: FAD-linked sulfhydryl oxidase ALR (Homo sapiens, UniProt P55789)
# Experiment: inhibitors of human ALR sulfhydryl oxidase, dose response, biochemical, H2O2 detection, luminescence, cherry-pick (AID 493248)
# Conditions: not given
# FAD-linked sulfhydryl oxidase ALR, sequence (P55789 whole entry): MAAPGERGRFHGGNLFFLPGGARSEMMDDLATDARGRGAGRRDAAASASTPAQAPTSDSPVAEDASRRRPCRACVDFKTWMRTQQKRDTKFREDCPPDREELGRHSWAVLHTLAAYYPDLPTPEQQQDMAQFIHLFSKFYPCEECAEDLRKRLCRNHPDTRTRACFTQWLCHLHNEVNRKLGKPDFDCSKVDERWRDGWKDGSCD
row,Structure (SMILES),AC50
1,Cc1ccc2[nH]c(CCc3ccc(N)cc3)nc2c1,0.018 µM (active)
2,N#Cc1cnn(-c2ccccc2)c1NC(=O)CN1CCN(c2ccccc2)CC1,13.4 µM (active)
3,CCN(CC)c1ccc(/C=N/NC(=O)Nc2nonc2N)cc1,1.38 µM (active)

# Molecular target: T3, Polyadenylate-binding protein 1 (Homo sapiens, UniProt P11940)
# Experiment: PABP1 MLLE–PAM2 interaction inhibitors, dose response, miRNA deadenylation inhibitor project, biochemical, fluorescence polarization, Cy5-PAM2 peptide, secondary (AID 602260)
# Format: functional
# Conditions: read-out: IC50_Mean
# T3 sequence (P11940 whole entry): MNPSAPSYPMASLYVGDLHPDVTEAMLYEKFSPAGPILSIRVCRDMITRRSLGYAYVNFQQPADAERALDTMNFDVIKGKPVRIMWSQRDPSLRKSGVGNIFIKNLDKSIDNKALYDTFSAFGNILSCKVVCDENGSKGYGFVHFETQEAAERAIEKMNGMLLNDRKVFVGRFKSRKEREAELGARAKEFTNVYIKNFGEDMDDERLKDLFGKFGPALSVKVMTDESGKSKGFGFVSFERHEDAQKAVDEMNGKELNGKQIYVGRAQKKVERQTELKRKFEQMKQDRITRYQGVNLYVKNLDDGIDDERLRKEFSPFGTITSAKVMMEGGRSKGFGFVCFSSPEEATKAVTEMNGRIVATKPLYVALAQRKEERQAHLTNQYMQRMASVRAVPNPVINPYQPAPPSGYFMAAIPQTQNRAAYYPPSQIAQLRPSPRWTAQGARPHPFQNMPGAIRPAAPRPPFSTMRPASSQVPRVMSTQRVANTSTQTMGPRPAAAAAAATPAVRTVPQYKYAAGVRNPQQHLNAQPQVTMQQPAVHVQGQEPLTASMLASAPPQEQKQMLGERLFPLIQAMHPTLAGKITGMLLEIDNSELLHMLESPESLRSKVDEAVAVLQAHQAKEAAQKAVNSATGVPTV
row,Structure (SMILES),IC50
1,CC(C(=O)NC1C(=O)N2C(C(=O)O)=C(CSc3nnnn3C)CSC12)n1cc(Cl)cn1 (stereo unspecified),> 66 µM (inactive)

# Molecular target: T3, Polyadenylate-binding protein 1
# Experiment: PABP1 MLLE–PAM2 binding inhibitor potency, dose response, biochemical, fluorescence polarization, FITC-PAM2 peptide (AID 602259)
# Format: functional
# Conditions: read-out: IC50_Mean
row,Structure (SMILES),IC50
1,CC(C(=O)NC1C(=O)N2C(C(=O)O)=C(CSc3nnnn3C)CSC12)n1cc(Cl)cn1 (stereo unspecified),> 66 µM (inactive)

# Molecular target: T4, Rac GTPase-activating protein 1 (Homo sapiens, UniProt Q9H0H5)
# T4 sequence (Q9H0H5 whole entry): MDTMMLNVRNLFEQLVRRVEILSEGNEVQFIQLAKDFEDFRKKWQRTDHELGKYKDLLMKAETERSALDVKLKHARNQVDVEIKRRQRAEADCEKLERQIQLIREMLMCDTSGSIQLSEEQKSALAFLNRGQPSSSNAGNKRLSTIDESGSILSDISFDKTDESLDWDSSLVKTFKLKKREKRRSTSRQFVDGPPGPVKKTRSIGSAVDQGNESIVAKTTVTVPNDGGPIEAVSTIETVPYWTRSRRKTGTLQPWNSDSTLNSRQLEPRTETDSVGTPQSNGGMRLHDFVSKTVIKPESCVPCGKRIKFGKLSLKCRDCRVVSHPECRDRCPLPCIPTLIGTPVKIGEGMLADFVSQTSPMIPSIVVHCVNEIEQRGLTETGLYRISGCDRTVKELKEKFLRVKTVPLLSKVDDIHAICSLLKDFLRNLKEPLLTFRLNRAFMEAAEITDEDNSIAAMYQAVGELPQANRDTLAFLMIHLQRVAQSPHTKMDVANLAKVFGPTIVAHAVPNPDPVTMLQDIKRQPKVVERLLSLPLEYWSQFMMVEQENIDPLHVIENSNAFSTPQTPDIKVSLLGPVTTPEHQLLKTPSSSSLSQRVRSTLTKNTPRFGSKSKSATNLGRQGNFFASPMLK
# Experiment: MgcRacGAP GTPase-activating activity inhibitors, confirmation, biochemical, ADP Hunter fluorescence, primary and confirmatory (AID 624330)
# Format: functional
# Conditions: not given
row,Structure (SMILES),IC50
1,Cc1ccc(SCCN2CCN(Cc3ccccc3)CC2)cc1,84.8 µM (active)

# From ChEMBL document CHEMBL1201862, “PubChem BioAssay data set” (2004)
